In assay [1] the test system is GDF8. Briefly: AlphaScreen SureFire p-SMAD3 (Ser423/425) assay, GDF8-stimulated cells. It is filed as cell-based. Particulars: Mus musculus. An excerpt:
(§1) The p-SMAD-3 (Ser423/425) SureFire® assay has been designed to measure the phosphorylation of endogenous cellular p-SMAD-3 (Ser423/425) in cell lysates and is a system for the screening of both modulators of receptor activation (e.g. agonists and antagonists) as well as agents acting intracellularly, such as small molecule inhibitors of upstream events. The assay will measure p-SMAD-3 (Ser423/425) activation by either cloned or endogenous receptors, and can be applied to primary cells.
(§2) 96-well Assay Protocol for 293FT and RMS13 adherent cells can be carried out manually or in high throughput with liquid handling robots.
(§3) The cells (80 μL of cells for 96 well plates) were plated in collagen coated tissue culture plates in RPMI or FreeStyle medium (Invitrogen) and incubated overnight. For manual analysis, 6 plates for GDF8, 6 plates for TGFβ, and optionally 6 plates for Alk5ca(ALK5 constitutively active) were used.
(§4) The compound dilution plates were prepared as follows: 12 μL of DMSO was transferred into first column of 96-well plate, and 16 μL of DMSO was transferred into columns 2-12 of the 96-well plate. 12 μL of compound solution was transferred into first column of the DMSO-containing 96-well plate. Three-fold dilution was performed up to column 10 of the DMSO-containing 96-well plate.
(§5) The plate containing cells were treated with compounds for about 10 minutes, and then ligand was added. GDF8 or TGFb was added to plates to stimulate. 293FL cells were stimulatedfor 90 minutes at 37° C.; and RMS13 cells were stimulated for 60 minutes at 37° C. The medium was then removed from the cells, and 1× Lysis Buffer (about 25 μL) was added and the plate was gently agitated on plate shaker for 5-10 minutes.
(§6) The lysate (5 μL) was then placed into 384-well shallow plates avoiding the generation of bubbles. To this, the Reaction Buffer+Activation Buffer+AlphaScreen® Acceptor beadsmixture (5 μL) was added. The plate was sealed with adhesive cover and shielded from light (e.g., with metal foil), and agitated gently on plate shaker for 2 hours at room temperature.
(§7) Dilution buffer+AlphaScreen® Donor beads (2 μL) was then added, and the plate was intubated on the plate shaker for an additional 1½ hours. After completion, the plate was read on Synergy-4 or Enspire plate reader, using AlphaScreen® pSMAD3® settings.
(§8) Representative results for inhibition of GDF8 (data=GDF pSMAD (MPC11) (μM)) and TGF-β (data=TGF-β pSMAD (MPC-11) (μM)) signaling are shown in Table 1(A=<0.05 μM, B=0.05−<0.1 μM, C=0.1−<1.0 μM, D=>1.0 μM): […]

The subject of assay [2] is TGF-β. Nature of the assay: AlphaScreen SureFire p-SMAD3 (Ser423/425) assay, TGF-β-stimulated cells. It is filed as cell-based. Particulars: Mus musculus.
Excerpt: as §1, §2, §3, §4, §5, §6, §7, §8
In general terms: Bead proximity is the source of the signal in Alpha formats.

The mark [3] stands for this setting: MPC-11, p-SMAD3 (Ser423/425) AlphaScreen in cell lysate, MPC11, GDF8 stimulation, read-out: GDF8: inhibition of GDF8 signaling, GDF pSMAD (MPC11).
Setting [4] is: p-SMAD3 (Ser423/425) AlphaScreen in cell lysate, MPC-11, TGF-β stimulation, read-out: TGF-β: inhibition of TGF-β signaling, TGF-β pSMAD (MPC-11).
Setting [5] is: MPC-11, read-out: GDF8: inhibition of GDF8 signaling, GDF pSMAD (MPC11), p-SMAD3 (Ser423/425) AlphaScreen in cell lysate, GDF8 stimulation.
The mark [6] stands for this setting: MPC-11, read-out: TGF-β: inhibition of TGF-β signaling, TGF-β pSMAD (MPC-11), p-SMAD3 (Ser423/425) AlphaScreen in cell lysate, TGF-β stimulation.

Where two headings read alike, the source gives them in different places.

For 25 compounds, IC50 results are on record in US10696693B2, “Fused imidazole derivatives as TGF-beta inhibitors” (Rigel Pharmaceuticals, Inc., priority 2014, dated 2020).

Consider `CS(=O)(=O)OCC1CCC2(CC1)Cc1nc(-c3ccc(F)cc3)c(-c3ccc4ncnn4c3)n1C2` (centres unmarked) [Compound 84, (3′-([1,2,4]triazolo[1,5-a]pyridin-6-yl)-2′-(4-fluorophenyl)-5′H,7′H-spiro[cyclohexane-1,6′-pyrrolo[1,2-a]imidazol]-4-yl)methyl methanesulfonate], for which the IC50 in assay [1] (setting [3]) and in assay [2] (setting [4]) was over 1 µM in each case.
Consider `Fc1ccc(-c2nc3n(c2-c2ccc4nccn4c2)CCC3)cc1` [Compound 2], for which the IC50 in assay [1] (setting [3]) and in assay [2] (setting [4]) was 0.1 to 1 µM throughout.
Turning to `Fc1ccc(-c2nc3n(c2-c2ccc4cn[nH]c4c2)CCC3)cc1` [Compound 176, 6-(2-(4-fluorophenyl)-6,7-dihydro-5H-pyrrolo[1,2-a]imidazol-3-yl)-1H-indazole], the IC50 in assay [1] (setting [5]) was 0.1 to 1 µM; in assay [2] (setting [6]) it was over 1 µM.
Taken in the same sequence, the figures for `Cc1cc(F)c(-c2nc3n(c2-c2ccc4ncccc4c2)CCC3)cc1F` [Compound 287, 6-(2-(2,5-difluoro-4-methylphenyl)-6,7-dihydro-5H-pyrrolo[1,2-a]imidazol-3-yl)quinoline] were over 1 µM and over 1 µM.
As for `Fc1cc(F)c(-c2nc3occn3c2-c2ccc3nccnc3c2)cc1F` [Compound 149, 5-(quinoxalin-6-yl)-6-(2,4,5-trifluorophenyl)imidazo[2,1-b]oxazole], the IC50 in assay [1] (setting [3]) is under 0.05 µM; in assay [2] (setting [4]) it was 0.05 to 0.1 µM.
For `CC(C)c1nnc2ccc(-c3c(-c4ccc(F)c(F)c4F)nc4n3CCC4)cn12` [Compound 23, 3-isopropyl-6-(2-(2,3,4-trifluorophenyl)-6,7-dihydro-5H-pyrrolo[1,2-a]imidazol-3-yl)-[1,2,4]triazolo[4,3-a]pyridine], the IC50 in assay [1] (setting [3]) and in assay [2] (setting [4]) was over 1 µM throughout.
For `[N-]=[N+]=NCC1CCC2(CC1)Cc1nc(-c3ccc(F)cc3)c(-c3ccc4ncnn4c3)n1C2` (centres unmarked) [Compound 85, 3′-([1,2,4]triazolo[1,5-a]pyridin-6-yl)-4-(azidomethyl)-2′-(4-fluorophenyl)-5′H,7′H-spiro[cyclohexane-1,6′-pyrrolo[1,2-a]imidazole]], the IC50 in assay [1] (setting [3]) and in assay [2] (setting [4]) was over 1 µM each time.
With `Fc1cc(F)cc(-c2nc3n(c2-c2ccc4cn[nH]c4c2)CCC3)c1` [Compound 231, 6-(2-(3,5-difluorophenyl)-6,7-dihydro-5H-pyrrolo[1,2-a]imidazol-3-yl)-1H-indazole], the IC50 is 0.1 to 1 µM in assay [1] (setting [5]) and over 1 µM in assay [2] (setting [6]).
For the compound `Cc1cc(-c2nc3n(c2-c2ccc4ncsc4c2)CCC3)c(F)cc1Cl` [Compound 253, 6-(2-(4-chloro-2-fluoro-5-methylpheny)-6,7-dihydro-5H-pyrrolo[1,2-a]imidazol-3-yl)benzo[d]thiazole], the IC50 in assay [1] (setting [3]) and in assay [2] (setting [4]) was over 1 µM in each case.
Take `Cc1cccc(-c2nc3n(c2-c2ccc4[nH]cnc4c2)CCC3)c1` [Compound 171, 5-(2-(m-tolyl)-6,7-dihydro-5H-pyrrolo[1,2-a]imidazol-3-yl)-1H-benzo[d]imidazole]: the figures for the IC50 in assay [1] (setting [3]) and in assay [2] (setting [4]) were 0.05 to 0.1 µM and 0.1 to 1 µM, respectively.
The like results for `COCCOc1cnc2ccc(-c3c(-c4cc(F)c(F)cc4F)nc4n3CCC4)cc2n1` [Compound 353, 2-(2-methoxyethoxy)-7-(2-(2,4,5-trifluorophenyl)-6,7-dihydro-5H-pyrrolo[1,2-a]imidazol-3-yl)quinoxaline] were, in that order, 0.1 to 1 µM and 0.1 to 1 µM.
Taken in the same sequence, the figures for `Cc1ccc(-c2nc3n(c2-c2ccc4ncnn4c2)CCC3)c(F)c1F` [Compound 26, 6-(2-(2,3-difluoro-4-methylphenyl)-6,7-dihydro-5H-pyrrolo[1,2-a]imidazol-3-yl)-[1,2,4]triazolo[1,5-a]pyridine] were over 1 µM and over 1 µM.
On to `Fc1cc(F)c(-c2nc3n(c2-c2ccc4[nH]ncc4c2)CCC3)cc1F` [Compound 220, 5-(2-(2,4,5-trifluorophenyl)-6,7-dihydro-5H-pyrrolo[1,2-a]imidazol-3-yl)-1H-indazole], for which the IC50 in assay [1] (setting [3]) lay within 0.05 to 0.1 µM; in assay [2] (setting [4]) it was 0.1 to 1 µM.
Taken in the same sequence, the figures for `Fc1cc(-c2nc3n(c2-c2ccc4nccn4c2)CCC3)c(F)cc1Cl` [Compound 19, 6-(2-(4-chloro-2,5-difluorophenyl)-6,7-dihydro-5H-pyrrolo[1,2-a]imidazol-3-yl)imidazo[1,2-a]pyridine] were over 1 µM and over 1 µM.
For `Fc1cccc(-c2nc3n(c2-c2ccc4nccn4c2)CCC3)c1` [Compound 7, 6-(2-(3-fluorophenyl)-6,7-dihydro-5H-pyrrolo[1,2-c]imidazol-3-yl)imidazo[1,2-c]pyridine], the IC50 is 0.1 to 1 µM in assay [1] (setting [3]) and over 1 µM in assay [2] (setting [4]).
`Clc1ccc(Cl)c(-c2nc3n(c2-c2ccc4ncnn4c2)CCC3)c1` [Compound 92, 6-(2-(2,5-dichlorophenyl)-6,7-dihydro-5H-pyrrolo[1,2-a]imidazol-3-yl)-[1,2,4]triazolo[1,5-a]pyridine]: the figures for the IC50 in assay [1] (setting [5]) and in assay [2] (setting [6]) were 0.05 to 0.1 µM and 0.1 to 1 µM, respectively.
`Fc1ccccc1-c1nc2n(c1-c1ccc3ncccc3c1)CCC2` [Compound 210, 6-(2-(2-fluorophenyl)-6,7-dihydro-5H-pyrrolo[1,2-a]imidazol-3-yl)quinoline]: the IC50 was 0.1 to 1 µM in assay [1] (setting [3]) and over 1 µM in assay [2] (setting [4]).
The like results for `Fc1ccc(-c2nc3occn3c2-c2ccc3nccn3c2)cc1F` [Compound 137, 6-(3,4-difluorophenyl)-5-(imidazo[1,2-a]pyridin-6-yl)imidazo[2,1-b]oxazole] were, in that order, under 0.05 µM and 0.05 to 0.1 µM.
The like results for `Fc1ccc(-c2nc3n(c2-c2cc4cnccc4s2)CCC3)cc1` [Compound 101, 2-(2-(4-fluorophenyl)-6,7-dihydro-5H-pyrrolo[1,2-a]imidazol-3-yl)thieno[3,2-c]pyridine] were, in that order, 0.1 to 1 µM and 0.1 to 1 µM.
Taken in the same sequence, the figures for `Cc1cc(-c2nc3n(c2-c2ccc4nccn4c2)CCC3)c(Cl)cc1F` [Compound 68, 6-(2-(2-chloro-4-fluoro-5-methylphenyl)-6,7-dihydro-5H-pyrrolo[1,2-a]imidazol-3-yl)imidazo[1,2-a]pyridine] were 0.05 to 0.1 µM and 0.1 to 1 µM.
`Cc1ccc(Cl)cc1-c1nc2n(c1-c1ccc3ncnn3c1)CCC2` [Compound 90, 6-(2-(5-chloro-2-methyl)-6,7-dihydro-5H-pyrrolo[1,2-a]imidazol-3-yl)-[1,2,4]triaolo[1,5-a]pyridine]: the IC50 in assay [1] (setting [3]) and in assay [2] (setting [4]) was 0.1 to 1 µM in each case.
In the case of `Fc1cc(-c2nc3n(c2-c2ccc4[nH]ncc4c2)CCC3)c(F)cc1Cl` [Compound 239, 5-(2-(4-chloro-2,5-difluorophenyl)-6,7-dihydro-5H-pyrrolo[1,2-a]imidazol-3-yl)-1H-indazole], the IC50 in assay [1] (setting [3]) and in assay [2] (setting [4]) was over 1 µM in each case.
In the case of `CN(C)CCOc1cnc2ccc(-c3c(-c4cc(F)cc(F)c4F)nc4n3CCC4)cc2n1` [Compound 361, N,N-dimethyl-2-((7-(2-(2,3,5-trifluorophenyl)-6,7-dihydro-5H-pyrrolo[1,2-a]imidazol-3-yl)quinoxalin-2-yl)oxy)ethan-1-amine], the IC50 in assay [1] (setting [5]) and in assay [2] (setting [6]) was over 1 µM each time.
As for `Fc1ccc(-c2nc3n(c2-c2ccc4nccn4c2)CC2(CCCC2)C3)cc1` [Compound 72, 2′-(4-fluorophenyl)-3′-(imidazo[1,2-a]pyridin-6-yl)-5′H,7′H-spiro[cyclopentane-1,6′-pyrrolo[1,2-a]imidazole]], the IC50 in assay [1] (setting [3]) and in assay [2] (setting [4]) was over 1 µM each time.
With `Fc1ccc(-c2nc3occn3c2-c2ccc3nccnc3c2)c(F)c1F` [Compound 164, 5-(quinoxalin-6-yl)-6-(2,3,4-trifluorophenyl)imidazo[2,1-b]oxazole], the IC50 in assay [1] (setting [3]) and in assay [2] (setting [4]) was 0.1 to 1 µM throughout.
